From patent publication US20220135591A1, “HETEROCYCLIC COMPOUNDS AS INHIBITORS OF MONOACYLGLYCEROL LIPASE (MAGL)” (Hoffmann-La Roche Inc., priority 2019, published 2022) come the findings set out here.

In the assay the target is T1, MAGL (recombinant wild-type) (Homo sapiens, UniProt Q99685).
T1 sequence (Q99685 1-303): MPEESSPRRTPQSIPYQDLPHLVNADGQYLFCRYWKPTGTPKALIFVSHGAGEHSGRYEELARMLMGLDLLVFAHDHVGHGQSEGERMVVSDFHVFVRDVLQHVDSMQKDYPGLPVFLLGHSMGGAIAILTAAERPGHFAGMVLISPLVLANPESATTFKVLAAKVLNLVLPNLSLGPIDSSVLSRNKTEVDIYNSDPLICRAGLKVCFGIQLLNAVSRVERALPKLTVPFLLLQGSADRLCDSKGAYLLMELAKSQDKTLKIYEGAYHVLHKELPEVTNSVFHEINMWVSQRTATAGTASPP
As to the kind of experiment: 4-NPA assay: MAGL inhibitory activity by hydrolysis of 4-nitrophenylacetate, absorbance at 405 nm. The format is biochemical. The note with it: 4-NPA assay (values without footnote [b]). An outline of the steps: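 Final assay: 1 nM MAGL and 300 μM 4-nitrophenylacetate in 50 mM Tris, 1 mM EDTA, at RT. Compounds (25 μM–1.7 nM, 3-fold steps) were preincubated 15 min with enzyme. A405 was read 5 min after substrate addition and again after 80 min; activity was taken as the difference between reads.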

For `Cc1ccc2oc(N3CCN(C(=O)c4cc(Cl)cc(N5CCC(CO)CC5)c4)CC3)nc2n1` [Example 178, [3-chloro-5-[4-(hydroxymethyl)piperidin-1-yl]phenyl]-[4-(5-methyl-[1,3]oxazolo[4,5-b]pyridin-2-yl)piperazin-1-yl]methanone], the 50% inhibitory concentration (IC50) (as a rule, the concentration needed to halve the response being measured) was 2490 nM. Take `Cc1ccc2oc(N3CCN(C(=O)c4cc(Cl)cc(N5CC6(CC(O)C6)C5)c4)CC3)nc2n1` [Example 179, [3-chloro-5-(6-hydroxy-2-azaspiro[3.3]heptan-2-yl)phenyl]-[4-(5-methyl-[1,3]oxazolo[4,5-b]pyridin-2-yl)piperazin-1-yl]methanone]: the IC50 was 3940 nM.

As to `Cc1ccc2oc(N3CCN(C(=O)c4ccc(N5CC6(CCCC6)C5)c(-c5ncc[nH]5)c4)CC3)nc2n1` [Example 180, [4-(2-azaspiro[3.4]octan-2-yl)-3-(1H-imidazol-2-yl)phenyl]-[4-(5-methyl-[1,3]oxazolo[4,5-b]pyridin-2-yl)piperazin-1-yl]methanone], the IC50 turned out to be 810 nM. Then `Cc1ccc2oc(N3CCN(C(=O)c4cc(Cl)cc(-c5ccc(CO)cc5)c4)CC3)nc2n1` [Example 181, [3-chloro-5-[4-(hydroxymethyl)phenyl]phenyl]-[4-(5-methyl-[1,3]oxazolo[4,5-b]pyridin-2-yl)piperazin-1-yl]methanone], with 180 nM. Consider `Cc1ccc2oc(N3CCN(C(=O)c4cc(OCCC(F)(F)F)cc(-c5ccc(CO)cc5)c4)CC3)nc2n1` [Example 182, [3-[4-(hydroxymethyl)phenyl]-5-(3,3,3-trifluoropropoxy)phenyl]-[4-(5-methyl-[1,3]oxazolo[4,5-b]pyridin-2-yl)piperazin-1-yl]methanone], for which the IC50 amounted to 379 nM. Then `Cc1ccc2oc(N3CCN(C(=O)c4ccc(OCC5(C(F)(F)F)CC5)c(-c5ccc(CO)cc5)c4)CC3)nc2n1` [Example 183, [3-[4-(hydroxymethyl)phenyl]-4-[[1-(trifluoromethyl)cyclopropyl]methoxy]phenyl]-[4-(5-methyl-[1,3]oxazolo[4,5-b]pyridin-2-yl)piperazin-1-yl]methanone], with 10 nM; and `Cc1ccc2oc(N3CCN(C(=O)c4ccc(OCCC(F)(F)F)c(-c5ccc(CO)cc5)c4)CC3)nc2n1` [Example 184, [3-[4-(hydroxymethyl)phenyl]-4-(3,3,3-trifluoropropoxy)phenyl]-[4-(5-methyl-[1,3]oxazolo[4,5-b]pyridin-2-yl)piperazin-1-yl]methanone], with 78 nM. For `Cc1ccc2oc(N3CCN(C(=O)c4cc(OCC5(C(F)(F)F)CC5)cc(-c5ccc(CO)cc5)c4)CC3)nc2n1` [Example 185, [3-[4-(hydroxymethyl)phenyl]-5-[[1-(trifluoromethyl)cyclopropyl]methoxy]phenyl]-[4-(5-methyl-[1,3]oxazolo[4,5-b]pyridin-2-yl)piperazin-1-yl]methanone] the value was 302 nM; for `Cc1ccc2oc(N3CCN(C(=O)c4ccc(-c5noc(CC(C)(C)C)n5)c(-c5ccc(CO)cc5)c4)CC3)nc2n1` [Example 186, [4-[5-(2,2-dimethylpropyl)-1,2,4-oxadiazol-3-yl]-3-[4-(hydroxymethyl)phenyl]phenyl]-[4-(5-methyl-[1,3]oxazolo[4,5-b]pyridin-2-yl)piperazin-1-yl]methanone], 12 nM. With `Cc1ccc2oc(N3CCN(C(=O)c4ccc(OCC5(C)CC5)c(-c5ccc(CO)cc5)c4)CC3)nc2n1` [Example 187, [3-[4-(hydroxymethyl)phenyl]-4-[(1-methylcyclopropyl)methoxy]phenyl]-[4-(5-methyl-[1,3]oxazolo[4,5-b]pyridin-2-yl)piperazin-1-yl]methanone], the IC50 came out at 9 nM. Then `Cc1ccc2oc(N3CCN(C(=O)c4cc(OCC5(C)CC5)cc(-c5ccc(CO)cc5)c4)CC3)nc2n1` [Example 188, [3-[4-(hydroxymethyl)phenyl]-5-[(1-methylcyclopropyl)methoxy]phenyl]-[4-(5-methyl-[1,3]oxazolo[4,5-b]pyridin-2-yl)piperazin-1-yl]methanone], with 165 nM; and `CC(C)(C)c1nc(-c2ccc(C(=O)N3CCN(c4nc5nc(C6CC6)ccc5o4)CC3)cc2)no1` [Example 189, (4-(5-(tert-butyl)-1,2,4-oxadiazol-3-yl)phenyl)(4-(5-cyclopropyloxazolo[4,5-b]pyridin-2-yl)piperazin-1-yl)methanone], with 2490 nM; and `O=C(c1ccc(N2CC3(CCCO3)C2)cc1)N1CCN(c2nc3ncccc3o2)CC1` [Example 192, (4-(5-oxa-2-azaspiro[3.4]octan-2-yl)phenyl)(4-(oxazolo[4,5-b]pyridin-2-yl)piperazin-1-yl)methanone], with 4120 nM. For `CC(OC1CN(c2ccc(C(=O)N3CCN(c4nc5ncccc5o4)CC3)cc2)C1)C(F)(F)F` (stereo not shown) [Example 193, (4-(oxazolo[4,5-b]pyridin-2-yl)piperazin-1-yl)(4-(3-((1,1,1-trifluoropropan-2-yl)oxy)azetidin-1-yl)phenyl)methanone] the value was 355 nM; for `Cc1ccc2oc(N3CCN(C(=O)c4ccc(N5CC6(CCCO6)C5)cc4)CC3)nc2n1` [Example 194, (4-(5-oxa-2-azaspiro[3.4]octan-2-yl)phenyl)(4-(5-methyloxazolo[4,5-b]pyridin-2-yl)piperazin-1-yl)methanone], 486 nM; for `Cc1ccc2oc(N3CCN(C(=O)c4ccc(N5CC(OC(C)C(F)(F)F)C5)cc4)CC3)nc2n1` (stereo not shown) [Example 195, (4-(5-methyloxazolo[4,5-b]pyridin-2-yl)piperazin-1-yl)(4-(3-((1,1,1-trifluoropropan-2-yl)oxy)azetidin-1-yl)phenyl)methanone], 39 nM. Then `O=C(c1ccc(N2CC(Oc3ccccc3)C2)cc1)N1CCN(c2nc3ncccc3o2)CC1` [Example 196, (4-(oxazolo[4,5-b]pyridin-2-yl)piperazin-1-yl)(4-(3-phenoxyazetidin-1-yl)phenyl)methanone], with 441 nM; and `COc1ccc2oc(N3CCN(C(=O)c4ccc(-c5noc(C(C)(C)C)n5)cc4)CC3)nc2n1` [Example 197, (4-(5-(tert-butyl)-1,2,4-oxadiazol-3-yl)phenyl)(4-(5-methoxyoxazolo[4,5-b]pyridin-2-yl)piperazin-1-yl)methanone], with 471 nM.

Turning to `Cc1ccc2oc(N3CCN(C(=O)c4ccc(N5CC(Oc6ccccc6)C5)cc4)CC3)nc2n1` [Example 198, (4-(5-methyloxazolo[4,5-b]pyridin-2-yl)piperazin-1-yl)(4-(3-phenoxyazetidin-1-yl)phenyl)methanone], the IC50 amounted to 46 nM. For the compound `Cc1ccc2oc(N3CCN(C(=O)c4ccc(OCc5cccc(Cl)c5)c(-c5ncc[nH]5)c4)CC3)nc2n1` [Example 199, [4-[(3-chlorophenyl)methoxy]-3-(1H-imidazol-2-yl)phenyl]-[4-(5-methyl-[1,3]oxazolo[4,5-b]pyridin-2-yl)piperazin-1-yl]methanone], the half-inhibitory concentration (IC50) was 625 nM.

Take `Cc1ccc2oc(N3CCN(C(=O)c4ccc(N5CC(O[C@@H](C)C(F)(F)F)C5)cc4)CC3)nc2n1` [Example 200, (S)-(4-(5-methyloxazolo[4,5-b]pyridin-2-yl)piperazin-1-yl)(4-(3-((1,1,1-trifluoropropan-2-yl)oxy)azetidin-1-yl)phenyl)methanone]: the IC50 turned out to be 15 nM. For `Cc1ccc2oc(N3CCN(C(=O)c4ccc(N5CC(O[C@H](C)C(F)(F)F)C5)cc4)CC3)nc2n1` [Example 201, (R)-(4-(5-methyloxazolo[4,5-b]pyridin-2-yl)piperazin-1-yl)(4-(3-((1,1,1-trifluoropropan-2-yl)oxy)azetidin-1-yl)phenyl)methanone], the IC50 worked out at 38 nM. Then `O=C(c1ccc(N2CCC3(C2)CC3(F)F)cc1)N1CCN(c2nc3nc(Cl)ccc3o2)CC1` (stereo not shown) [Example 202, [4-(5-chloro-[1,3]oxazolo[4,5-b]pyridin-2-yl)piperazin-1-yl]-[4-(2,2-difluoro-5-azaspiro[2.4]heptan-5-yl)phenyl]methanone], with 14 nM; and `O=C(c1ccc(N2CC3(CCC3(F)F)C2)cc1)N1CCN(c2nc3nc(Cl)ccc3o2)CC1` [Example 203, [4-(5-chloro-[1,3]oxazolo[4,5-b]pyridin-2-yl)piperazin-1-yl]-[4-(7,7-difluoro-2-azaspiro[3.3]heptan-2-yl)phenyl]methanone], with 35 nM. As for `CC(C)(C)OC1CN(c2ccc(C(=O)N3CCN(c4nc5nc(Cl)ccc5o4)CC3)cc2)C1` [Example 204, (4-(3-(tert-butoxy)azetidin-1-yl)phenyl)(4-(5-chlorooxazolo[4,5-b]pyridin-2-yl)piperazin-1-yl)methanone], the concentration for half-maximal inhibition (IC50) is 18 nM.

On to `CCC(C)(C)OC1CN(c2ccc(C(=O)N3CCN(c4nc5nc(Cl)ccc5o4)CC3)cc2)C1` [Example 205, (4-(5-chlorooxazolo[4,5-b]pyridin-2-yl)piperazin-1-yl)(4-(3-(tert-pentyloxy)azetidin-1-yl)phenyl)methanone], for which the 50% inhibitory concentration (IC50) came to 5 nM. For `Cc1ccc2oc(N3CCN(C(=O)c4ccc(N5CC6(CCC6(F)F)C5)cc4)CC3)nc2n1` [Example 206, (4-(5,5-difluoro-2-azaspiro[3.3]heptan-2-yl)phenyl)(4-(5-methyloxazolo[4,5-b]pyridin-2-yl)piperazin-1-yl)methanone], the IC50 is 61 nM.

For the compound `Cc1ccc2oc(N3CCN(C(=O)c4ccc(N5CC(OC(C)C(F)(F)F)C5)cc4F)CC3)nc2n1` (stereo not shown) [Example 207, (2-fluoro-4-(3-((1,1,1-trifluoropropan-2-yl)oxy)azetidin-1-yl)phenyl)(4-(5-methyloxazolo[4,5-b]pyridin-2-yl)piperazin-1-yl)methanone], the IC50 came out at 16 nM.
